pIC50: −log10 of the molar value.
How the values were obtained:
Rattus norvegicus [1] = assay: Percent inhibition of sorbitol accumulation in the sciatic nerve of streptozotocin (STZ)- induced diabetic rats at peroral dose of 30 mg/kg (preventive effect); format: functional; settings: route oral
Rattus norvegicus [2] = assay: Percent inhibition of sorbitol accumulation in the lens of streptozotocin (STZ)-induced diabetic rats at peroral dose of 30 mg/kg (preventive effect); format: functional; settings: Lens of camera-type eye, route oral
[3] = biological target: Aldo-keto reductase family 1 member B1 (Sus scrofa, UniProt P80276); assay: Inhibitory concentration against porcine lens aldose reductase (AR) with DL-glyceraldehyde as the substrate
Rattus norvegicus [4] = assay: Inhibition of sorbitol accumulation in the sciatic nerve in diabetic rats at peroral dose of 30 mg/kg (curative effect); format: functional; settings: route oral
Rattus norvegicus [5] = assay: Inhibition of sorbitol accumulation in the lens in diabetic rats at peroral dose of 30 mg/kg (curative effect); format: functional; settings: Lens of camera-type eye, route oral
Rattus norvegicus [6] = assay: Percent inhibition of sorbitol accumulation in the lens of streptozotocin (STZ)-induced diabetic rats at peroral dose of 30 mg/kg (curative effect); format: functional; settings: Lens of camera-type eye, route oral
Rattus norvegicus [7] = assay: Percent inhibition of sorbitol accumulation in the sciatic nerve of streptozotocin (STZ)- induced diabetic rats at peroral dose of 30 mg/kg (curative effect); format: functional; settings: route oral
[8] = biological target: Aldo-keto reductase family 1 member B1 (Sus scrofa) (UniProt P80276); assay: In vitro percent inhibition of porcine lens aldose reductase (AR) at 10e -7 M with DL-glyceraldehyde as the substrate

pIC50 [3]	Structure (SMILES)	inhibition in vivo at 30 mg/kg (Rattus norvegicus [1]) [%]	inhibition in vivo at 30 mg/kg (Rattus norvegicus [2]) [%]	ED50 (Rattus norvegicus [4]) [mg/kg]	ED50 (Rattus norvegicus [5]) [mg/kg]	other results
–	CN(CC(=O)O)C(=S)CCc1nc2c(F)c(F)cc(F)c2s1	48	58	–	–	–
7.42	O=C(O)Cc1ccc(Cc2nc3c(F)c(F)cc(F)c3s2)cc1	–	–	–	–	–
–	O=C(O)CN(C(=S)CCc1nc2c(F)c(F)cc(F)c2s1)c1ccccc1	< 64	12	–	–	–
–	O=C(O)CN(C(=O)CCc1nc2c(F)c(F)cc(F)c2s1)c1ccccc1	54	80	–	–	–
–	Cc1cc(CC(=O)O)cc(Cc2nc3c(F)c(F)cc(F)c3s2)c1	–	–	0.25	1.6	–
7.80	COc1ccc2c(C(=S)N(C)CC(=O)O)cccc2c1C(F)(F)F [TOLRESTAT]	84	36	–	–	–
–	O=C(O)CC1Sc2ccccc2N(Cc2nc3c(F)c(F)cc(F)c3s2)C1=O (stereo not drawn)	–	–	1.8	> 10	–
7.92	CN(C)c1cc(CC(=O)O)cc(Cc2nc3c(F)c(F)cc(F)c3s2)c1.Cl	–	–	0.53	> 10	–
7.92	O=C(O)Cn1c(=O)n(Cc2ccc(Br)cc2F)c(=O)c2ccc(Cl)cc21 [ZENARESTAT]	89	30	–	–	inhibition in vivo at 30 mg/kg (Rattus norvegicus [6]): 21%; inhibition in vivo at 30 mg/kg (Rattus norvegicus [7]): 76%
–	O=C(O)Cc1cc(Cc2nc3c(F)c(F)cc(F)c3s2)cc(C(=O)O)c1	–	–	> 10	> 10	–
–	O=C(O)CCCCCCc1nc2c(F)c(F)cc(F)c2s1	–	–	–	–	inhibition [8]: 11%
–	O=C(O)CCCCc1nc2c(F)c(F)cc(F)c2s1	–	–	–	–	inhibition [8]: 35%
7.96	O=C(O)Cc1cc(I)cc(Cc2nc3c(F)c(F)cc(F)c3s2)c1	–	–	> 10	> 10	–
7.30	O=C(O)CCCCCc1nc2c(F)c(F)cc(F)c2s1	–	–	–	–	inhibition [8]: 71%
–	O=C(O)Cc1cccc(Cc2nc3c(F)c(F)cc(F)c3s2)c1	–	–	1.5	> 10	–
8.06	O=C(O)Cc1cc(F)cc(Cc2nc3c(F)c(F)cc(F)c3s2)c1	–	–	0.32	10	–
–	CN(CC(=O)O)C(=O)CCc1nc2c(F)c(F)cc(F)c2s1	61	30	–	–	–
–	O=C(O)CN(Cc1ccccc1)C(=O)CCc1nc2c(F)c(F)cc(F)c2s1	75	54	–	–	–
–	O=C(O)CCCc1nc2c(F)c(F)cc(F)c2s1	–	–	–	–	inhibition [8]: 1%
–	O=C(O)Cc1cc(Br)cc(Cc2nc3c(F)c(F)cc(F)c3s2)c1	–	–	0.68	9.8	–
–	O=C(O)CN(Cc1ccccc1)C(=S)CCc1nc2c(F)c(F)cc(F)c2s1	65	23	–	–	–
8.03	O=C(O)Cc1cccc(Cc2nc3c(F)c(F)cc(F)c3s2)c1Cl	–	–	0.12	0.71	–
8.15	O=C(O)Cc1cc(Cl)cc(Cc2nc3c(F)c(F)cc(F)c3s2)c1	–	–	0.46	7.8	–
–	O=C(O)CN(CCc1ccccc1)C(=O)CCc1nc2c(F)c(F)cc(F)c2s1	65	-2	–	–	–
